Assay results reported in US20080201790A1, “Method and product for regulating cell responsiveness to external signals” (priority 1993, published 2008).

Legend:
[1] = test system: JNK; assay: JNK solid state kinase assay (GST-Jun) in L929 cells; type: cell-based, murine; settings: not shown
Procedure: (§1) In panel A cells were treated for 10 minutes with the indicated concentration of TNFα. JNK activation was measured using a solid phase kinase assay resulting in phosphorylation of GST-Jun. In […] the time course of MAPK activation is shown. MAPK was isolated from cell lysates on DEAE sephacel columns and MAPK activation was measured by phosphorylation of the EGFR peptide substrate. Panel C depicts the concentration curve of MAPK activation by TNFα. Cells were treated with the indicated concentration of TNFα and MAPK was assayed.
(§2) Cell lines and culture. L929 cells (ATCC CCL1 were maintained in Dulbecco's modified Eagle's medium with 5% newborn calf serum and 5% bovine calf serum (BCS) supplemented with 100 ug/ml streptomycin and 100 U/ml penicillin. The cells were grown in 10 cm dishes at 37° C. in 7.5% CO2. Cells were made quiescent where indicated by incubation in Dulbecco's modified Eagle's medium and 0.1% bovine serum albumin for 24 h. Recombinant murine TNFα and recombinant human bFGF (147aa) were from R&D Systems, Minneapolis, Minn. Cells were pretreated where indicated with the MEK-1 inhibitor PD#098059 (Parke-Davis Pharmaceutical Corp. Ann Arbor, Mich.) for 1 h at 37° C. Cells were stimulated by incubation with the indicated cytokine or growth factor for various times at 37° C. Stimulation was stopped by rinsing the plates twice with ice cold phosphate buffered saline (PBS) and lysing the cells in the appropriate lysis buffer. Cells were scraped from the plates and nuclei were pelleted for 10 min at 14,000 RPM in a microcentrifuge. JNK assay. JNK activity was measured using a solid state kinase assay in which glutathione S-transferase-c-Jun (1-79) (GST-JUN) cound to glutathione-Sepharose 4B beads was used to affinity purify JNK and then JNK activity was measured in an in vitro kinase assay using the sepharose bound GST-Jun as a substrate (Hibi, M., et al. (1993) Genes & Development 7:2135-2148). Stimulated or unstimulated cells were lysed in 0.5% Nonidet P-40, 20 mM HEPES pH 7.2, 100 mM NaCl, 2 mM dithiothreitol, 1 mM EDTA, 1.0 mM phenylmethylsulfonylfluoride, 1 μg/ml aprotinin and the nuclei pelleted. Lysates were normalized for protein content. JNK was affinity purified from 50-100 μg of cell lysate by the addition of 10 ul of GST-Jun sepharose slurry (2 μg GST-Jun). Binding to GST-Jun efficiently isolates the two major forms of JNK (p45 and p55) and under the conditions used JNK isolation was linear for 10-250 μg of cell lysate. The lysates were rotated at 4° C. for 1-3 h. Beads were washed twice in lysis buffer and then twice in PAN (10 mM PIPES, pH 7.0, 100 mM NaCl, 21 μg/ml aprotinin). Kinase reactions were carried out at 30° C. for 15 min in 20 mM Hepes pH 7.2, 20 mM β-glycerophosphate, 10 mM p-nitrophenyl phosphate, 10 mM MgCl2, 1 mM dithiothreitol, 50 μm sodium vanadate, 10 μCi γ^32P-ATP 4300 Ci/mmole. The kinase reaction was linear from 0-30 min. MAPK Assay MAPK activity was measured exactly as described previously (Gardner, A. M., et al. (1994) Meth. Enzymol. 238:258-270) with the exception that MonoQ FPLC fractionation was replaced by step elution from a DEAE-Sephacel column using 0.5 M NaCl in loading buffer. The eluate was assayed in triplicate using the epidermal growth factor receptor 662-681 peptide (EGFR662-681) as a selective substrate for MAPK activity (Heasley, L. E., et al. (1994) American Journal of Physiology (Renal Fluid Electrolyte Physiol. 36) 267:F366-F373). […] Cells were lysed by scraping in ice cold RIPA buffer (50 mM Tris-HCl, pH 7.2, 150 mM NaCl, 0.1% SDS, 0.5% sodium deoxycholate, 1.0% Triton X-100, 10 mM sodium pyrophosphate, 25 mM β-glycerophosphate, 2 mM sodium vanadate, 2.1 μg/ml aprotinin) and the nuclei were pelletted. […]

[2] = test system: L929 cells; assay: Neutral red cell viability assay of L929 cells treated with TNFα and/or bFGF; type: cell-based, murine; settings: L929 cells
Procedure: In panel A cells were treated with the indicated concentrations of TNFα for 15 hours and were assayed for uptake of neutral red. In panel B cells were untreated (solid bars), treated with 0.5 ng/ml bFGF (dotted bars) or 5.0 ng/ml bFGF (hatched bars) and the indicated concentrations of TNFα for 18 hours. Cell viability was assessed by neutral red assay.
In panel A serum starved L929 cells were untreated or treated for 1 hour at 37° C. with the MEK-1 inhibitor (PD) and then unstimulated or stimulated with bFGF. MAPK activity was measured. In panel B L929 cells were untreated or treated for 1 hour at 37° C. with PD and then were untreated or treated with TNFα alone or in combination with bFGF for 18 hours. Cell viability was assessed by neutral red assay.
Cell lines and culture. L929 cells (ATCC CCL1 were maintained in Dulbecco's modified Eagle's medium with 5% newborn calf serum and 5% bovine calf serum (BCS) supplemented with 100 ug/ml streptomycin and 100 U/ml penicillin. The cells were grown in 10 cm dishes at 37° C. in 7.5% CO2. Cells were made quiescent where indicated by incubation in Dulbecco's modified Eagle's medium and 0.1% bovine serum albumin for 24 h. Recombinant murine TNFα and recombinant human bFGF (147aa) were from R&D Systems, Minneapolis, Minn. Cells were pretreated where indicated with the MEK-1 inhibitor PD#098059 (Parke-Davis Pharmaceutical Corp. Ann Arbor, Mich.) for 1 h at 37° C. Cells were stimulated by incubation with the indicated cytokine or growth factor for various times at 37° C. Stimulation was stopped by rinsing the plates twice with ice cold phosphate buffered saline (PBS) and lysing the cells in the appropriate lysis buffer. Cells were scraped from the plates and nuclei were pelleted for 10 min at 14,000 RPM in a microcentrifuge. JNK assay. JNK activity was measured using a solid state kinase assay in which glutathione S-transferase-c-Jun (1-79) (GST-JUN) cound to glutathione-Sepharose 4B beads was used to affinity purify JNK and then JNK activity was measured in an in vitro kinase assay using the sepharose bound GST-Jun as a substrate (Hibi, M., et al. (1993) Genes & Development 7:2135-2148). Stimulated or unstimulated cells were lysed in 0.5% Nonidet P-40, 20 mM HEPES pH 7.2, 100 mM NaCl, 2 mM dithiothreitol, 1 mM EDTA, 1.0 mM phenylmethylsulfonylfluoride, 1 μg/ml aprotinin and the nuclei pelleted. Lysates were normalized for protein content. JNK was affinity purified from 50-100 μg of cell lysate by the addition of 10 ul of GST-Jun sepharose slurry (2 μg GST-Jun). Binding to GST-Jun efficiently isolates the two major forms of JNK (p45 and p55) and under the conditions used JNK isolation was linear for 10-250 μg of cell lysate. The lysates were rotated at 4° C. for 1-3 h. Beads were washed twice in lysis buffer and then twice in PAN (10 mM PIPES, pH 7.0, 100 mM NaCl, 21 μg/ml aprotinin). Kinase reactions were carried out at 30° C. for 15 min in 20 mM Hepes pH 7.2, 20 mM β-glycerophosphate, 10 mM p-nitrophenyl phosphate, 10 mM MgCl2, 1 mM dithiothreitol, 50 μm sodium vanadate, 10 μCi γ^32P-ATP 4300 Ci/mmole. The kinase reaction was linear from 0-30 min. MAPK Assay MAPK activity was measured exactly as described previously (Gardner, A. M., et al. (1994) Meth. Enzymol. 238:258-270) with the exception that MonoQ FPLC fractionation was replaced by step elution from a DEAE-Sephacel column using 0.5 M NaCl in loading buffer. The eluate was assayed in triplicate using the epidermal growth factor receptor 662-681 peptide (EGFR662-681) as a selective substrate for MAPK activity (Heasley, L. E., et al. (1994) American Journal of Physiology (Renal Fluid Electrolyte Physiol. 36) 267:F366-F373). […]

[3] = target: MEK-1 (Homo sapiens, UniProt Q02750); settings: Alessi et al. 1995; cited from earlier work
Chain of MEK-1 (Q02750 whole entry, species assumed): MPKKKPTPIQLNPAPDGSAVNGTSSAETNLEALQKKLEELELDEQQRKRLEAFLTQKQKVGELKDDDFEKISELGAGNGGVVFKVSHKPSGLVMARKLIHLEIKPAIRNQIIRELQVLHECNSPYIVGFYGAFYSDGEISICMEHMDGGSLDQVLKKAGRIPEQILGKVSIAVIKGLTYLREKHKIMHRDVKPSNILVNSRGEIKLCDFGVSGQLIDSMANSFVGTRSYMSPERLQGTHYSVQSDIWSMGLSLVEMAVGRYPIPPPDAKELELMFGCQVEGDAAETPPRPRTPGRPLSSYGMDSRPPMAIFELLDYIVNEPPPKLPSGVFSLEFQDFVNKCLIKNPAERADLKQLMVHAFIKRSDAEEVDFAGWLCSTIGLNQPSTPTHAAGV

[4] = test system: p42/p44 MAPK; assay: MAPK assay (DEAE-Sephacel, EGFR662-681 peptide) in L929 cells; type: cell-based, murine; settings: L929 cells
Procedure: as §1
FIG. 26 depicts the activation of MAPK by bFGF in L929 cells. Serum starved L929 cells were stimulated for 10 min with the indicated concentration of bFGF.
as §2

Structure (SMILES): COc1cccc(-c2cc(=O)c3ccccc3o2)c1N [PD #098059, reference compound]
- inhibition of JNK kinase / activation of JNK [1]: did not inhibit JNK kinase or the activation of JNK
- effect on TNFα-mediated cell death [2]: had no effect on TNFα-mediated apoptosis
- effect on the protective action of bFGF against TNFα [2]: inhibited the protective action of bFGF
- inhibition of MEK-1 [3]: inhibits the dual specificity protein kinase, MEK-1
- effect on bFGF stimulation of MAPK activity [4]: inhibited bFGF stimulation of MAPK activity
